# Publication PMC3726599, “A Metabolically-Stabilized Phosphonate Analog of Lysophosphatidic Acid Attenuates Collagen-Induced Arthritis” (PLoS ONE, 2013)
# Columns and labels:
# [1] = tested on: plasma LPA levels; test: In vivo plasma LPA and LPC levels (HPLC-MS/MS); parameters: species or system mouse; conditions: 10 mg/kg i.p.
# Procedure: BrP-LPA, LPA species (C14:0, C16:0, C18:0, C18:1 and C20:4) and LPC species (C14:0, C16:0, C18:0, C18:1 and C20:0) were measured in plasma with HPLC-ESI/MS/MS using RSLCnano system (Ultimate 3000) coupled in-line with an LTQ Orbitrap XL mass spectrometer (Thermo Scientific, Waltham, MA, USA). BrP-LPA and lipid (LPA, LPC) extraction from plasma was performed on ice according to the Folch method with minor modifications. Plasma samples (50 ul) were mixed with 950 ul PBS prior to extraction and spiked with the internal standard mix (17:1 LPA/LPC). Samples were extracted under neutral conditions with 4 ml of ice-cold CHCl3/CH3OH (2/1, v/v) followed by 2 ml of PBS-saturated ice-cold CHCl3/CH3OH (2/1, v/v). Each extraction step was followed by a 60 s vortex and a 1 min centrifugation step in a bench-top clinical centrifuge in a cold room at 4°C at 3,000 rpm. The lower chloroform organic phases from both neutral extraction steps were pooled and kept for LPC measurement. The remained aqueous phase was chilled on ice for 10 min and extracted twice with ice-cold acidified with acetic acid CHCl3/CH3OH (2/1, v/v) as above. The lower organic phases were pooled, neutralized to pH 6–7 (checked with pH paper as above) on ice and kept for LPA, BrP-LPA measurements. The kept neutral lower organic phase of neutral extraction and the neutralized acidified lower organic phase were evaporated to dryness. The resulting residues were resuspended in 0.15 ml of isopropanol and after brief vortex mixing the solution was transferred to the auto sampler vial. Recovery of LPA species was between 60% and 95%. Recovery of BrP-LPA was 70% and the recovery of LPC species was between 80% and 100%. The Relative Standard Deviation (RSD) was less than 7% from the plasma fortified with three different concentrations (0.1, 0.5 and 1 μΜ) of LPAs, (0.1, 1 and 10 μΜ) of BrP-LPA and (0.5, 5 and 50 μΜ) of LPCs. Analysis was performed using a Phenomenex (Phenomenex, Torrance, CA, USA) Luna Silica column (2–250 mm, 5 μm particle size) using a binary gradient program consisting of isopropanol:hexane:100 mM NH4CO2H(aq) 58:40:2 (mobile phase A) and isopropanol:hexane:100 mM NH4CO2H(aq) 50:40:10 (mobile phase B). The mobile phase was delivered at a flow rate of 0.3 ml/min and the total run time was 50 min/sample. […] The precursor ion mass was used for the quantification while lipid identity was confirmed by precursor ion fragmentation using collision induced dissociation (CID). […]
# BrP-LPA was administered intraperitoneally (IP) at 10 mg/kg in water to 6–8 week old female mice. […] Plasma samples were then analysed for plasma ATX activity and BrP-LPA/LPA/LPC levels with the TOOS activity assay and HPLC-MS/MS respectively. […]
# [2] = tested on: human colon cancer cells (HCT-116); parameters: method as in earlier work; conditions: HCT-116, in vitro; cited from earlier work
smiles,measurement,setting,value
"CCCCCCCCCCCCCCCC(=O)OC[C@@H](O)CC(Br)P(=O)(O)O (stereo partly drawn) [BrP-LPA, 1-bromo-3(S)-hydroxy-4-(palmitoyloxy)butyl-phosphonate]",plasma LPC levels,[1],remain unchanged
same,production of LPA species in plasma,[1],inhibited the production of all LPA species tested except from 14:0 LPA
same,reduction of total plasma LPA levels,[1]; 1 hour post administration,82%
same,"LPA levels, % of normal initial levels",[1]; sixteen hours post administration,60–70%
same,"proliferation, migration and invasion",[2],"reduce human colon cancer cells (HCT-116) proliferation, migration and invasion in vitro"
